“Also recorded” adds a separate entry of the source.
B1: α-B crystallin: recombinant human α-B crystallin; small heat shock protein encoded by the CRYAB gene, SEQ ID NO:1 (protein, listed as Homo sapiens)
chain: MDIAIHHPWIRRPFFPFHSPSRLFDQFFGEHLLESDLFPTSTSLSPFYLRPPSFLRAPSWFDTGLSEMRLEKDRFSVNLDVKHFSPEELKVKVLGDVIEVHGKHEERQDEHGFISREFHRKYRIPADVDPLTITSSLSSDGVLTVNGPRKQVSGPERTIPITREEKPAVTAAPKK

How the values were obtained:
Type in all cases: cell-based, human
DCM cardiomyocytes = assay: Force measurements (Fpassive) in single demembranated dilated cardiomyopathy (DCM) cardiomyocytes; details: SL 1.8-2.4 μm; for Fpassive (Fpassive-SL curve) after alkaline phosphatase vs baseline: AP 2000 U/mL, 40 minutes at 20° C.
Method: (§1) Force measurements were performed on single demembranated cardiomyocytes (n ranged from 9 to 15 for each group and experimental protocol) as described previously.^4, 5 Cardiomyocytes were isolated from donor, AS, and DCM hearts. Briefly, samples were thawed in relaxing solution (in mmol/L: free Mg, 1; KCl, 100; EGTA, 2; Mg-ATP, 4; imidazole, 10; pH 7.0), mechanically disrupted and incubated for 5 minutes in relaxing solution supplemented with 0.5% TRITON® X-100. The cell suspension was washed 5 times in relaxing solution. Single cardiomyocytes were selected under an inverted microscope and attached with silicone adhesive between a force transducer and a piezoelectric motor. Cardiomyocyte Fpassive was measured in relaxing buffer at room temperature within a sarcomere length (SL) range between 1.8 and 2.4 μm. Force values were normalized to cardiomyocyte cross-sectional area calculated from the diameter of the cells, assuming a cylindrical shape. As a test of cell viability, each cardiomyocyte was also transferred from relaxing to maximally activating solution (pCa4.5), at which isometric force developed. Once a steady state force was reached, the cell was shortened within 1 ms to 80% of its original length to determine baseline force. Only cells developing active forces >20 kN/m^2 were included in the analysis. Thereafter, cardiomyocytes were incubated in relaxing solution supplemented with alkaline phosphatases (AP) (2000 U/mL; New England Biolabs), 6 mmol/L dithiothreitol (MP Biochemicals) for 40 minutes at 20° C. and Fpassive was measured again at SL 1.8-2.4 μm. Subsequently, cardiomyocytes were stretched to ˜2.6 μm SL, incubated in relaxing buffer with pH 6.6, and held in the stretched state for 15 minutes (prestretch). […] Finally, the pH 6.6 buffer was supplemented with recombinant human α-B crystallin at 0.1 mg/ml and Fpassive was measured in the presence of α-B crystallin again at SL 1.8-2.4 μm.

AS cardiomyocytes = assay: Force measurements (Fpassive) in single demembranated aortic stenosis (AS) cardiomyocytes; details: for Fpassive (Fpassive-SL curve) after alkaline phosphatase vs baseline: AP 2000 U/mL, 40 minutes at 20° C.; for Fpassive (Fpassive-SL curve) after α-B crystallin vs AS baseline: single AS cardiomyocytes
Method: Force measurements were performed on single demembranated cardiomyocytes (n ranged from 9 to 15 for each group and experimental protocol) as described previously.^4, 5 Cardiomyocytes were isolated from donor, AS, and DCM hearts. Briefly, samples were thawed in relaxing solution (in mmol/L: free Mg, 1; KCl, 100; EGTA, 2; Mg-ATP, 4; imidazole, 10; pH 7.0), mechanically disrupted and incubated for 5 minutes in relaxing solution supplemented with 0.5% TRITON® X-100. The cell suspension was washed 5 times in relaxing solution. Single cardiomyocytes were selected under an inverted microscope and attached with silicone adhesive between a force transducer and a piezoelectric motor. Cardiomyocyte Fpassive was measured in relaxing buffer at room temperature within a sarcomere length (SL) range between 1.8 and 2.4 μm. Force values were normalized to cardiomyocyte cross-sectional area calculated from the diameter of the cells, assuming a cylindrical shape. As a test of cell viability, each cardiomyocyte was also transferred from relaxing to maximally activating solution (pCa4.5), at which isometric force developed. Once a steady state force was reached, the cell was shortened within 1 ms to 80% of its original length to determine baseline force. Only cells developing active forces >20 kN/m^2 were included in the analysis. Thereafter, cardiomyocytes were incubated in relaxing solution supplemented with alkaline phosphatases (AP) (2000 U/mL; New England Biolabs), 6 mmol/L dithiothreitol (MP Biochemicals) for 40 minutes at 20° C. and Fpassive was measured again at SL 1.8-2.4 μm. Subsequently, cardiomyocytes were stretched to ˜2.6 μm SL, incubated in relaxing buffer with pH 6.6, and held in the stretched state for 15 minutes (prestretch). Thereafter, cardiomyocytes were returned to slack length and stabilized for 5 minutes before recording the Fpassive with an identical stretch protocol from SL 1.8-2.4 μm in the low pH buffer. Finally, the pH 6.6 buffer was supplemented with recombinant human α-B crystallin at 0.1 mg/ml and Fpassive was measured in the presence of α-B crystallin again at SL 1.8-2.4 μm.
In a second set of experiments, single AS cardiomyocytes underwent either incubation at pH 6.6 alone or a prestretch in relaxing buffer with pH 6.6 to ˜2.6 μm SL, followed by the same stretch protocol from SL 1.8-2.4 μm.
Finally, in a third set of experiments, Fpassive was measured in single AS cardiomyocytes from SL 1.8-2.4 μm before and after incubation with α-B crystallin, before and after incubation with α-B crystallin and a prestretch to ˜2.6 μm SL, and before and after incubation with α-B crystallin, a prestretch to ˜2.6 μm SL and incubation at pH 6.6.

donor cardiomyocytes = assay: Force measurements (Fpassive) in single demembranated donor cardiomyocytes; details: SL 1.8-2.4 μm; for Fpassive (Fpassive-SL curve) after alkaline phosphatase vs baseline: AP 2000 U/mL, 40 minutes at 20° C.
Method: as §1

[1] = after AP, prestretch to ~2.6 μm SL in pH 6.6, α-B crystallin 0.1 mg/ml

Molecule | Fpassive (Fpassive-SL curve) after alkaline phosphatase vs baseline (DCM cardiomyocytes) | Fpassive (Fpassive-SL curve) after alkaline phosphatase vs baseline (DCM cardiomyocytes; listed as AP) | Fpassive (Fpassive-SL curve) after alkaline phosphatase vs baseline (AS cardiomyocytes; AS cardiomyocytes, SL 1.8-2.4 μm) | Fpassive (Fpassive-SL curve) after alkaline phosphatase vs baseline (AS cardiomyocytes; AS cardiomyocytes, SL 1.8-2.4 μm, listed as AP) | Fpassive (Fpassive-SL curve) after alkaline phosphatase vs baseline (donor cardiomyocytes) | Fpassive (Fpassive-SL curve) after alkaline phosphatase vs baseline (donor cardiomyocytes; listed as AP) | Fpassive (Fpassive-SL curve) after α-B crystallin (DCM cardiomyocytes; [1]) | Fpassive (Fpassive-SL curve) after α-B crystallin (AS cardiomyocytes; AS cardiomyocytes, after AP, prestretch to ~2.6 μm SL in pH 6.6, α-B crystallin 0.1 mg/ml, SL 1.8-2.4 μm) | Fpassive (Fpassive-SL curve) after α-B crystallin vs AS baseline (AS cardiomyocytes; α-B crystallin alone, no prior intervention (FIG. 6A), SL 1.8-2.4 μm) | Fpassive (Fpassive-SL curve) after α-B crystallin vs AS baseline (AS cardiomyocytes; α-B crystallin and prestretch to ~2.6 μm SL alone (FIG. 6B)) | Fpassive (Fpassive-SL curve) after α-B crystallin vs AS baseline (AS cardiomyocytes; α-B crystallin, prestretch to ~2.6 μm SL and pH 6.6 (FIG. 6C)) | Fpassive (Fpassive-SL curve) after α-B crystallin (donor cardiomyocytes; [1])
alkaline phosphatase [reference compound] | the Fpassive-SL curve failed to shift | had no effect on the Fpassive-SL curve; also recorded: not in AS or DCM cardiomyocytes | the Fpassive-SL curve failed to shift | no significant change in the Fpassive-SL curve; also recorded: not in AS or DCM cardiomyocytes | Fpassive significantly increased; also recorded: the Fpassive-SL curve shifted upward | shifts the diastolic Fpassive-SL relation upward in donor |  |  |  |  |  | 
B1 |  |  |  |  |  |  | lowered diastolic stiffness well below baseline values; also recorded: Fpassive dropped to a level significantly below baseline; also recorded: fell to a position that was significantly below baseline and comparable to the baseline position of donor cardiomyocytes; also recorded: falls below the baseline diastolic Fpassive-SL relation in AS and DCM cardiomyocytes | lowered diastolic stiffness well below baseline values; also recorded: dropped Fpassive to a level significantly lower than baseline; also recorded: dropped to a position that was significantly lower than baseline and comparable to the baseline position of donor cardiomyocytes; also recorded: falls below the baseline diastolic Fpassive-SL relation in AS and DCM cardiomyocytes | shifted the diastolic Fpassive-SL relation downward; also recorded: decreased Fpassive significantly; also recorded: shifted the Fpassive-SL curve significantly downward compared to baseline | decreased Fpassive significantly as well; also recorded: yielded a similar result | decreased Fpassive significantly as well; also recorded: yielded a similar result | Fpassive normalized again to baseline; also recorded: the curve returned to an intermediate position between baseline and AP; also recorded: coincides with the baseline diastolic Fpassive-SL relation of donor cardiomyocytes
